From patent US20190345558A1, “METHOD FOR DETERMINING SENSITIVITY TO A CDK4/6 INHIBITOR” (UNIVERSITÉ LIBRE DE BRUXELLES, priority 2016, published 2019)

Experiments:
MDAMB134VI = experiment: BrdU DNA incorporation assay
Method: (§1) One hour before fixation with methanol, 100 μM 5-Bromo-2′-deoxyuridine (BrdU, Sigma-Aldrich) and 4 μM 5-Fluoro-2′-deoxyuridine (FldU, Sigma-Aldrich) were added to the cells. Immuno-detection of DNA incorporated BrdU was performed. 4′,6-Diamidino-2-phenylindole, dilactate (DAPI, Thermo Fisher Scientific) solution (1 μg/ml) was used as nuclear counterstain and round coverslips were mounted in each well of the 96 well plate with ProLong Gold Antifade Mountant (Thermo Fisher Scientific). […] Culture plates were imaged with a Zeiss Axio Observer.Z1 wide-field microscope equipped with a 10/0.3×EC Plan Neofluar objective and an AxioCam HSm camera. For each well, a grid of 3×3 fields (each of them 660 μm×492 μm) was automatically defined using the Mark&Find option of the AxioVision software. […] Exposure times were chosen so as to maximize the signal while avoiding saturation. They were kept constant through all images within one experiment. A software-based autofocus was performed on the DAPI channel, using a general offset of 8-10 μm. A 10 μm offset was added for the A488 channel. Images were analyzed semi-automatically with a custom-made ImageJ macro. […] The total number of nuclei and the area that they represent were recorded to compute the BrdU-positive to total nuclei ratios. […] Images with less than 10 labeled nuclei were counted manually with the Image J cell counter plugin.

MCF7 = experiment: BrdU DNA incorporation assay
Method: as §1

HCC70 = experiment: BrdU DNA incorporation assay
Method: as §1

HCC1806 = experiment: BrdU DNA incorporation assay
Method: One hour before fixation with methanol, 100 μM 5-Bromo-2′-deoxyuridine (BrdU, Sigma-Aldrich) and 4 μM 5-Fluoro-2′-deoxyuridine (FldU, Sigma-Aldrich) were added to the cells. Immuno-detection of DNA incorporated BrdU was performed. 4′,6-Diamidino-2-phenylindole, dilactate (DAPI, Thermo Fisher Scientific) solution (1 μg/ml) was used as nuclear counterstain and round coverslips were mounted in each well of the 96 well plate with ProLong Gold Antifade Mountant (Thermo Fisher Scientific). […] Culture plates were imaged with a Zeiss Axio Observer.Z1 wide-field microscope equipped with a 10/0.3×EC Plan Neofluar objective and an AxioCam HSm camera. For each well, a grid of 3×3 fields (each of them 660 μm×492 μm) was automatically defined using the Mark&Find option of the AxioVision software. […] Exposure times were chosen so as to maximize the signal while avoiding saturation. They were kept constant through all images within one experiment. A software-based autofocus was performed on the DAPI channel, using a general offset of 8-10 μm. A 10 μm offset was added for the A488 channel. Images were analyzed semi-automatically with a custom-made ImageJ macro. For each field of view, two masks were created, representing the areas positive for the DAPI or for both the DAPI and the BrdU stainings, respectively. Nuclei were then segmented within these masks using the “Analyze particles” function. The total number of nuclei and the area that they represent were recorded to compute the BrdU-positive to total nuclei ratios. The segmentation of the nuclei was verified visually and only values extracted from correctly segmented images were selected for further analysis. […] Each processed image was therefore systematically inspected to correct low counts and remove image with staining artefacts from the analysis. Images with less than 10 labeled nuclei were counted manually with the Image J cell counter plugin.

HCC1500 = experiment: BrdU DNA incorporation assay
Method: as §1

HCC202 = experiment: BrdU DNA incorporation assay; conditions: Homo sapiens, HCC202, 24 h
Method: as §1

MDAMB436 = experiment: BrdU DNA incorporation assay
Method: as §1

SKBR3 = experiment: BrdU DNA incorporation assay
Method: as §1

HCC1569 = experiment: BrdU DNA incorporation assay
Method: as §1

ZR751 = experiment: BrdU DNA incorporation assay
Method: as §1

MDAMB468 = experiment: BrdU DNA incorporation assay
Method: as §1

MDAMB361 = experiment: BrdU DNA incorporation assay
Method: as §1

HCC1954 = experiment: BrdU DNA incorporation assay
Method: as §1

BT549 = experiment: BrdU DNA incorporation assay
Method: as §1

MDAMB231 = experiment: BrdU DNA incorporation assay
Method: as §1

T47D = experiment: BrdU DNA incorporation assay
Method: as §1

BT20 = experiment: BrdU DNA incorporation assay
Method: as §1

pRb phosphorylations = experiment: pRb phosphorylation in HCC1806 cells; type: cell-based, Human; conditions: not shown
Method: Equal amounts of whole cell extract proteins were separated according to molecular mass and immunodetected. CDK4-containing complexes were co-immunoprecipited as described (Paternot et al., 2003, J Biol Chem, 278, 26533-40; Bockstaele et al., 2006, Mol Cell Biol, 26, 5070-85). For 2D gel electrophoresis, cells were lysed in a buffer containing 7 M urea and 2 M thiourea. Frozen tumor slides were solubilised in 30 mM Tris cold buffer pH 8.5 containing 7 M urea, 2 M thiourea and 4% CHAPS with continuous vortexing until defreezing and kept under agitation during 20 min. After centrifugation at 14000 rpm for 10 min at 4° C., proteins were quantified. An equal volume of 2-D-sample buffer (7 M urea, 2 M thiourea, 2% CHAPS, 0.4% 3-10 Pharmalytes and 0.4% DTT) was added to samples normalized at 150 μg proteins. Proteins were separated by isoelectric focusing on immobilized linear pH gradient strips (pH 5 to 8, Biorad) before being separated by SDS-PAGE and immunoblotted as described (Bockstaele et al., 2006, Mol Cell Biol, 26, 5070-85).

breast cancer cell lines = experiment: BrdU incorporation assay, panel of 20 cell lines
Method: as §1

HCC1937 = experiment: BrdU DNA incorporation assay
Method: as §1

BT474 = experiment: BrdU DNA incorporation assay
Method: as §1

HCC38 = experiment: BrdU DNA incorporation assay
Method: as §1

Structure (SMILES): CC(=O)c1c(C)c2cnc(Nc3ccc(N4CCNCC4)cn3)nc2n(C2CCCC2)c1=O [PD0332991, palbociclib]
- IC50 (MDAMB134VI; Homo sapiens, MDA-MB-134-VI, 24 h): 3 nM
- sensitivity of the cell line to PD0332991 (MDAMB134VI; MDAMB134IV as printed, luminal): sensitive
- IC50 (MCF7; Homo sapiens, MCF7, 24 h): 15 nM
- sensitivity of the cell line to PD0332991 (MCF7; MCF7, luminal): sensitive
- sensitivity of the cell line to PD0332991 (HCC70; HCC70, basal-like): insensitive
- IC50 (HCC70; Homo sapiens, HCC70, 24 h): > 1000 nM
- proportion of cells in S phase measured with the BrDU assay (HCC1806; HCC1806 cells, 1 μM PD0332991 (FIG. 1C), average of 5 independent experiments): 80 % of the control value
- IC50 (HCC1806; Homo sapiens, HCC1806, 24 h): 10 nM
- sensitivity of the cell line to PD0332991 (HCC1500; HCC1500, basal-like): sensitive
- IC50 (HCC1500; Homo sapiens, HCC1500, 24 h): 10 nM
- IC50 (HCC202): 25 nM
- IC50 (MDAMB436; Homo sapiens, MDA-MB-436, 24 h): > 1000 nM
- sensitivity of the cell line to PD0332991 (MDAMB436; MDAMB436, basal-like): insensitive
- IC50 (SKBR3; Homo sapiens, SK-BR-3, 24 h): 15 nM
- sensitivity of the cell line to PD0332991 (SKBR3; SKBR3, HER2+): sensitive
- sensitivity of the cell line to palbociclib (HCC1569; HCC1569): insensitive
- IC50 (HCC1569; Homo sapiens, HCC1569, 24 h): > 1000 nM
- IC50 (ZR751; Homo sapiens, ZR-75-1, 24 h): 15 nM
- sensitivity of the cell line to PD0332991 (ZR751; ZR75-1): sensitive
- IC50 (MDAMB468; Homo sapiens, MDA-MB-468, 24 h): > 1000 nM
- sensitivity of the cell line to PD0332991 (MDAMB468; MDAMB468, basal-like): insensitive
- IC50 (MDAMB361; Homo sapiens, MDA-MB-361, 24 h): 10 nM
- sensitivity of the cell line to PD0332991 (MDAMB361; MDAMB361, HER2+): sensitive
- sensitivity of the cell line to PD0332991 (HCC1954; HCC1954, HER2+): sensitive
- IC50 (HCC1954; Homo sapiens, HCC1954, 24 h): 25 nM
- sensitivity of the cell line to PD0332991 (BT549; BT459 as printed, basal-like): insensitive
- IC50 (BT549; Homo sapiens, BT-549, 24 h): > 1000 nM
- IC50 (MDAMB231; Homo sapiens, MDA-MB-231, 24 h): 15 nM
- sensitivity of the cell line to PD0332991 (MDAMB231; MDAMB231, basal-like): sensitive
- IC50 (T47D; Homo sapiens, 24 h): 15 nM
- sensitivity of the cell line to PD0332991 (T47D; luminal): sensitive
- sensitivity of the cell line to PD0332991 (BT20; BT20, basal-like): sensitive
- IC50 (BT20; Homo sapiens, BT-20, 24 h): 3 nM
- inhibition of pRb phosphorylations in response to PD0332991 (pRb phosphorylations): marked inhibition
- cell lines in which the proportion of DNA replicating cells was reduced in a concentration-dependent way (breast cancer cell lines; BrdU incorporation): 13 out of these 20 cell lines
- IC50 (breast cancer cell lines; Homo sapiens, read-out: IC50s with the BrdU incorporation assay): 5 to 50 nM
- sensitivity of the cell line to PD0332991 (HCC1937; HCC1937, basal-like): insensitive
- IC50 (HCC1937; Homo sapiens, HCC1937, 24 h): > 1000 nM
- sensitivity of the cell line to PD0332991 (BT474; BT474, HER2+): sensitive
- IC50 (BT474; Homo sapiens, BT-474, 24 h): 15 nM
- sensitivity of the cell line to PD0332991 (HCC38; HCC38, basal-like): sensitive
- IC50 (HCC38; Homo sapiens, HCC38, 24 h): 15 nM

Structure (SMILES): CC[C@H](CO)Nc1nc(NCc2ccccc2)c2ncn(C(C)C)c2n1 [Roscovitine]
- effect of Roscovitine on the sensitivity of HCC1806 cells to PD0332991 (HCC1806; 2.5, 5, 10 μM Roscovitine with increasing concentrations of PD0332991, BrdU (FIG. 5)): dose-dependently increased the sensitivity
